As a reminder, the IC50 is the midpoint of a concentration-inhibition curve. Higher therefore signals weaker potency.

We go through 1 compound from publication PMC6115343 (The Korean Journal of Physiology & Pharmacology : …, 2018).

This test deals with Transient receptor potential vanilloid 1 (TRPV1) (Mus musculus, UniProt Q704Y3). Briefly: whole-cell patch clamp of native TRPV1 currents in cultured mouse DRG neurons. Type of test: cell-based.
Chain of Transient receptor potential vanilloid 1 (TRPV1) (Q704Y3 whole entry): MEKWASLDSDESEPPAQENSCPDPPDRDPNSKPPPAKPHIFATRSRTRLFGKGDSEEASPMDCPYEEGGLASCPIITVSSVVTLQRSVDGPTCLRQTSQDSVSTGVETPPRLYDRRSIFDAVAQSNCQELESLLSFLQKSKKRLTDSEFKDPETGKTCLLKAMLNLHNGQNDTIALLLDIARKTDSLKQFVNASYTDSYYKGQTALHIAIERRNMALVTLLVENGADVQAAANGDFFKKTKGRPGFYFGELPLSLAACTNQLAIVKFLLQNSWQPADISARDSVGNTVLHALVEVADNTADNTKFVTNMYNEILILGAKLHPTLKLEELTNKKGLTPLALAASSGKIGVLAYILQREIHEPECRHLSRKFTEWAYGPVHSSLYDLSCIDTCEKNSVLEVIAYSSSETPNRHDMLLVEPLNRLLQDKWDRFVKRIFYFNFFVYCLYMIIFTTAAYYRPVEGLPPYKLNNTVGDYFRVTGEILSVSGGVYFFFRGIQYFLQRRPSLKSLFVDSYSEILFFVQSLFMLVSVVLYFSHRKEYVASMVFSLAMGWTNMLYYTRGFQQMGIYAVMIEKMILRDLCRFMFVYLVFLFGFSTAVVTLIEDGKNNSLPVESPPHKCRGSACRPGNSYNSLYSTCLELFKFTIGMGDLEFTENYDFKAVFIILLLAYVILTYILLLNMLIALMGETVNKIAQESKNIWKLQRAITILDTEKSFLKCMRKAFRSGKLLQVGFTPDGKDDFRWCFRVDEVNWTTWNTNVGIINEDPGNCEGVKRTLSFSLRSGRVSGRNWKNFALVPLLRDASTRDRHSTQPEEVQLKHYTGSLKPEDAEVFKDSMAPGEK

Regarding `COc1cc(/C=C/C(=O)CC(=O)/C=C/c2ccc(O)c(OC)c2)ccc1O` [curcumin], the IC50 came out at 0.523 µM.
